Experimental data as given in paper PMC6615261, “Repurposing Azithromycin and Rifampicin Against Gram-Negative Pathogens by Combination With Peptidomimetics” (Frontiers in Cellular and Infection Microbiology, 2019).
Read-outs that look alike come from different tables or passages of the source.

Columns and labels:
K. pneumoniae ST258 [1] = test: Screening of peptidomimetic-antibiotic combinations (growth / growth inhibition); format: cell-based, Klebsiella pneumoniae; parameters: key to Growth in combination with RIF / Growth in combination with AZM: Growth (+); growth inhibition (–)
E. coli ST131 [2] = test: MIC by broth microdilution; format: cell-based, Escherichia coli; conditions: peptidomimetic alone
Summary of the method: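 Checkerboard data set the combination ratios (2:1 with rifampicin, 1:4 with azithromycin, peptidomimetic first). MICs then followed CLSI broth microdilution, and potentiation used commercial antibiotic-gradient plates with peptidomimetic added right before inoculation.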

K. pneumoniae ST258 [3] = tested on: K. pneumoniae ST258
Summary of the method: (§1)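 Two-dimensional checkerboard broth microdilution in MHB II, with twofold dilutions of peptidomimetic and antibiotic on crossed axes and 18–20 h incubation per CLSI. FICI = MICA(A+B)/MICA(alone) + MICB(A+B)/MICB(alone); ≤0.5 is interpreted as synergy.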

E. coli ST131 [4] = tested on: E. coli ST131
Summary of the method: as §1

[5] = MIC of azithromycin combined with the labelled peptidomimetic
[6] = MIC of rifampicin combined with the labelled peptidomimetic

SMILES: NCCCC[C@H](NC(=O)CCN(Cc1ccccc1)C(=O)[C@H](CCCCN)NC(=O)CCN(Cc1ccccc1)C(=O)[C@H](CCCCN)NC(=O)CCN(Cc1ccccc1)C(=O)[C@H](CCCCN)NC(=O)CCN(Cc1ccccc1)C(=O)[C@H](CCCCN)NC(=O)CCN(Cc1ccccc1)C(=O)[C@H](CCCCN)NC(=O)CCN(Cc1ccccc1)C(=O)[C@H](CCCCN)NC(=O)CCN(Cc1ccccc1)C(=O)[C@@H](N)CCCCN)C(=O)N(CCC(N)=O)Cc1ccccc1 [Peptidomimetic 1, H-(Lys-βNPhe)8-NH2]
- Screening result with rifampicin (K. pneumoniae ST258 [1]; 0.5 μM peptidomimetic + 0.5 μg/mL rifampicin): inhibit growth
- Screening result with azithromycin (K. pneumoniae ST258 [1]; 0.5 μM peptidomimetic + 1 μg/mL azithromycin): prevented growth
- Growth in combination with AZM (K. pneumoniae ST258 [1]; peptidomimetic 0.5 μM + azithromycin 1 μg/mL): –
- Growth in combination with RIF (K. pneumoniae ST258 [1]; peptidomimetic 0.5 μM + rifampicin 0.5 μg/mL): –
- MIC E. coli ST131 (E. coli ST131 [2]): 2 µM
- Antibiotic MIC in combination (AZM) (K. pneumoniae ST258 [3]; [5]): 4 µg/mL
- Antibiotic MIC in combination (RIF) (K. pneumoniae ST258 [3]; [6]): 0.25 µg/mL
- Peptidomimetic MIC alone (K. pneumoniae ST258 [3]; checkerboard): 16 µM
- Peptidomimetic MIC in combination (K. pneumoniae ST258 [3]; combined with AZM): 0.5 µM
- Peptidomimetic MIC in combination (K. pneumoniae ST258 [3]; combined with RIF): 0.5 µM
- Antibiotic MIC in combination (AZM) (E. coli ST131 [4]; [5]): 1 µg/mL
- Antibiotic MIC in combination (RIF) (E. coli ST131 [4]; [6]): 0.06 µg/mL
- Peptidomimetic MIC alone (E. coli ST131 [4]; checkerboard): 2 µM
- Peptidomimetic MIC in combination (E. coli ST131 [4]; combined with AZM): 0.25 µM
- Peptidomimetic MIC in combination (E. coli ST131 [4]; combined with RIF): 0.5 µM
